Laboratory results: PMC11938014, “Development and Application of Small Molecule–Peptide Conjugates as Cathepsin K-Specific Covalent Irreversible Inhibitors in Human Osteoclast and Lung Cancer” (JACS Au, 2025)

Key:
[1] = system: IL-4-induced macrophage cells; test: Residual cathepsin activity in IL-4-induced macrophages lacking CTSK (GB123 gel); assay type: cell-based, mouse; conditions: 5 μM, 2 h, then GB123
Procedure: (§1) Human and mouse CTSK species have a high degree of structural commonality. […] Therefore, to investigate the inhibitors’ cross-reactivity with mouse CTSK, mouse OCs were cultivated with mouse bone marrow cells stimulated with M-CSF and RANKL for 9–10 days. In addition, control cells differentiated into macrophages that highly express active cathepsins but not CTSK and were generated by treatment with M-CSF and IL-4.[49] Both intact OC and macrophage cells were incubated for 2 h with GD20, vehicle, or ODN, followed by a 2 h incubation with pan-cathepsin probe GB123. The CTSK-specific fluorescent band near 25 kDa disappeared in cells treated with GD20, whereas the other competing band remained unaltered (Figure 7a). Mice OS samples were blotted to identify the different cathepsins in the sample (Figure S9b).
(§2) Figure 7 CTSK inhibition in mice osteoclasts. (a) Activity and expression of CTSK in mouse OCs were assessed in the presence of indicated inhibitors. Intact OCs were treated for 2 h with 5 μM inhibitor in the culture medium, followed by 2 h of labeling of residual enzyme activity by GB123. Samples were analyzed by SDS-PAGE and scanned for fluorescence with a Typhoon scanner at 635/670 nm. Western blot with anti-CTSK is shown aside. […] Samples were analyzed by SDS-PAGE and scanned for fluorescence with a Typhoon scanner at 635/670 nm. […]

human osteoclasts = test: Osteoclast differentiation assay on plastic (TRAP); assay type: cell-based; conditions: osteoclasts grown on plastic, 7 days
Procedure: To assess osteoclast differentiation, 7.5 × 10^4 cells from PBMCs, cells preincubated with M-CSF, were cultured in 96-well plates. After 3 days, medium was replaced with differentiation medium (αMEM; M8042 sigma, 10% FBS, 5% Penstrep and L-Glu, BI) supplemented with 25 ng/mL M-CSF and 25 ng/mL RANKL (R&D systems, 390-TN) and different inhibitors: GD20 (1 or 5 μM), ODN (1 or 5 μM), or vehicle. The differentiation medium was changed after 2 and 5 days. Cells were fixed on the 7th day with 4% PFA for 10 min at room temperature, they were washed three times with PBS, and then stained using a TRAP staining kit (Sigma-Aldrich, 387A-1KT) according to the manufacturer’s protocol with additional staining of the nuclei with DAPI. Osteoclast parameters were obtained by analysis of three wells from each- treatment. […] The total osteoclast surface area was determined using ImageJ software by manually tracing individual osteoclasts perimeters.
Figure S7. Identification of fluorescent band identity. […] G els were scanned for fluorescence and then underwent immunoblotting with different cathepsin -specific antibodies . […]
Fluorescence Immunoblot s.ch. = single chain, […]
Quantification of the total number of osteoclasts, and c) osteoclast-cell area in each treatment […]
Figure S9. […] Cathepsin activity was detected by labeling intact osteoclast with GB123, a pan-cathepsin activity-based probe. […]

mouse CTSK in mouse OCs = target: T1, mouse CTSK in mouse OCs (Mus musculus, UniProt P55097); test: Residual cathepsin activity in mice osteoclasts (GB123 gel); assay type: cell-based; conditions: 5 μM, 2 h, then GB123 2 h
T1 construct: endogenous in cells; host or cells: osteoclasts differentiated from C57BL/6 mouse bone marrow
T1 sequence (P55097 115-329): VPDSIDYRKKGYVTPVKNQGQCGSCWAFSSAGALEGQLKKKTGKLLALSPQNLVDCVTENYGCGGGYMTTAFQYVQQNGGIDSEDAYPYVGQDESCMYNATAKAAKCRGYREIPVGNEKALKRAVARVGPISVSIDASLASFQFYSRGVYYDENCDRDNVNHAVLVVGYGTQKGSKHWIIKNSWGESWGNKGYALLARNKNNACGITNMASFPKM
Procedure: as §1, §2

CTSK-specific fluorescent band near 25 kDa (mouse CTSK in mouse OCs): disappeared
SMILES: CC(C)C[C@H](N[C@@H](c1ccc(-c2ccc(S(C)(=O)=O)cc2)cc1)C(F)(F)F)C(=O)NCC(=O)COC(=O)[C@@H]1CCCN1C(=O)[C@H](CC(C)C)NC(=O)OCC1c2ccccc2-c2ccccc21 [GD20]
inhibition of cathepsin bands in macrophages that lack CTSK [1]: lack of inhibition of any band
total osteoclast area (human osteoclasts): slightly decreased
